Experimental data published in publication PMC9965906, “Discovery and Development Strategies for SARS-CoV-2 NSP3 Macrodomain Inhibitors” (Pathogens, 2023).
pIC50, pKd: −log10 of the molar value.

How the values were obtained:
MacroD1 = settings: MacroD1, AlphaScreen-based assay format; cited from earlier work
NSP3 Mac1 [1] = settings: recognition by NSP3 Mac1; cited from earlier work
NSP3 Mac1 [2] = system: NSP3 Mac1; parameters: method as in PMID 35598780; settings: similar set-up using the peptide, AlphaScreen; cited from earlier work
SARS-CoV-2 NSP3 Mac1 = SARS-CoV-2 NSP3 Mac1 (Severe acute respiratory syndrome coronavirus 2, UniProt P0DTD1); experiment: biochemical; format: binding; settings: for inhibition at 125 µM: read-out: Inhibition at top concentration of 125 µM (%)
[3] = MIDAS hit compounds and analogues
[4] = MIDAS hit compounds and analogues, top concentration 125 µM, 8-point 1:1 dilution, duplicate
[5] = FDA-approved compound library primary screen, 50 µM, single shot

Question: With `C[CH2][Hg][S]c1ccccc1C(=O)[O-].[Na+]` [Thimerosal, reference compound] as the compound, how does the pIC50 (MacroD1) read?
Answer: Its pIC50 is 5.28.

Question: Which results are given for `Nc1ncnc2c1ncn2[C@@H]1O[C@H](COP(=O)(O)OP(=O)(O)OC[C@H]2OC(O)[C@H](O)[C@@H]2O)[C@@H](O)[C@H]1O` (stereo partly drawn) [ADP-ribose]?
Answer: pKd (NSP3 Mac1 [1]): 4.89; pIC50 (NSP3 Mac1 [2]): 5.82

Question: For `Cn1ccc2c(-c3ccc(Cn4ccnc4)cn3)ccnc21` [IAL-MD0145, CN1C=CC2=C(C3=NC=C(CN4C=CN=C4)C=C3)C=CN=C21], which inhibition at 125 µM (SARS-CoV-2 NSP3 Mac1; [3]) is on record?
Answer: The inhibition at 125 µM was 81.1%.

Question: What about the pIC50 (SARS-CoV-2 NSP3 Mac1; MIDAS hit compounds and analogues, top concentration 125 µM, 8-point 1:1 dilution, duplicate, read-out: IC50) of the same compound?
Answer: The pIC50 was 4.85.

Question: Which inhibition at 125 µM (SARS-CoV-2 NSP3 Mac1; [3]) does the source give for `O=C(c1ccc(NCC2CC2)nc1)N1CCC(c2c[nH]c3ncccc23)CC1` [IAL-MD0110, O=C(N1CCC(CC1)C2=CNC=3N=CC=CC23)C=4C=CC(NCC5CC5)=NC4] here?
Answer: The inhibition at 125 µM was 7.8%.

Question: And the “IC50 in µM” value (SARS-CoV-2 NSP3 Mac1; [4])?
Answer: Its value is “Not measurable”.

Question: For `Nc1nc(/C(=C/CC(=O)O)C(=O)N[C@@H]2C(=O)N3C(C(=O)O)=CCS[C@H]23)cs1` [Ceftibuten, reference compound], which inhibition at 50 µM (SARS-CoV-2 NSP3 Mac1; [5]) is on record?
Answer: The inhibition at 50 µM was 71.6%.

Question: With `C=CCCCCCCCCC(=O)[O-].C=CCCCCCCCCC(=O)[O-].[Zn+2]` [Zinc undecylenate, reference compound] as the compound, how does the “NSP3 Mac1 inhibition at 50 µM (%)” value (SARS-CoV-2 NSP3 Mac1; [5]) read?
Answer: Its value is 68.0%.

Question: Which inhibition at 25 µM (SARS-CoV-2 NSP3 Mac1; MIDAS compound library primary screen, 25 µM) does the source give for `NC(=O)[C@@H]1CCCN1C(=O)c1cc(-n2cccc2)ccc1Cl` [ARUK4000702-001-001, NC(=O)[C@@H]1CCCN1C(=O)c1cc(ccc1Cl)-n1cccc1] here?
Answer: Its inhibition at 25 µM is 45.8%.

Question: With `CC(=O)Nc1cccc(C(=O)N2CCC(c3c[nH]c4ncccc34)CC2)c1` [IAL-MD0078, CC(=O)NC=1C=CC=C(C1)C(=O)N2CCC(CC2)C3=CNC=4N=CC=CC34] as the compound, how does the inhibition at 125 µM (SARS-CoV-2 NSP3 Mac1; [3]) read?
Answer: The inhibition at 125 µM was 10.5%.

Question: And the “IC50 in µM” value (SARS-CoV-2 NSP3 Mac1; [4])?
Answer: Its value is “Not measurable”.
